Results reported in ChEMBL document CHEMBL1201862, “PubChem BioAssay data set” (2004).
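Protocol summary: plate cells (96-well), add compound at 5 concentrations, incubate 48 h, interpolate endpoints linearly. GI50 = concentration required for 50% inhibition of growth.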 The source made the active and inactive calls. No stated cut-off is given here; in the data, active = GI50 up to about 1.1 µM and inactive = higher.

What was measured:
Assay in all cases: growth of human tumour cells (NCI), 48 h
786-0 = test system: 786-0
A498 = test system: A498
CAKI-1 = test system: CAKI-1
HOP-62 = test system: HOP-62
HOP-92 = test system: HOP-92
Hs-578T = test system: Hs-578T
IGROV-1 = test system: IGROV-1
LOX IMVI = test system: LOX IMVI
MDA-MB-231 = test system: MDA-MB-231
MDA-MB-435 = test system: MDA-MB-435
Malme-3M = test system: Malme-3M
NCI-H226 = test system: NCI-H226
NCI-H460 = test system: NCI-H460
SF-539 = test system: SF-539
SN12C = test system: SN12C
SNB-19 = test system: SNB-19
SW-620 = test system: SW-620
T47D = test system: T47D
UACC-257 = test system: UACC-257
UACC-62 = test system: UACC-62

Measured: GI50

CCOC(=O)CNC1=NNS(=O)(=O)c2ccccc21
inactive: 786-0 > 100 µM | A498 20.8 µM | CAKI-1 > 100 µM | HOP-62 > 100 µM | HOP-92 > 100 µM | Hs-578T > 100 µM | IGROV-1 > 100 µM | LOX IMVI > 100 µM | MDA-MB-231 > 100 µM | MDA-MB-435 > 100 µM | Malme-3M > 100 µM | NCI-H226 > 100 µM | NCI-H460 32.6 µM | SF-539 > 100 µM | SN12C > 100 µM | SNB-19 > 100 µM | SW-620 > 100 µM | T47D > 100 µM | UACC-257 > 100 µM | UACC-62 > 100 µM

O=C(c1ccc(F)cc1)c1cccc(C(=O)c2ccc(F)cc2)n1
inactive: 786-0 37.8 µM | A498 > 52.7 µM | CAKI-1 28 µM | HOP-62 20.1 µM | HOP-92 15.8 µM | Hs-578T 25.6 µM | IGROV-1 24.9 µM | LOX IMVI 60.7 µM | MDA-MB-231 38.6 µM | MDA-MB-435 > 100 µM | Malme-3M > 77.6 µM | NCI-H226 > 45.4 µM | NCI-H460 > 100 µM | SF-539 30.8 µM | SN12C 55.2 µM | SNB-19 25.2 µM | SW-620 > 83.9 µM | T47D 34.4 µM | UACC-257 47.4 µM | UACC-62 44.2 µM
